What was measured:
[1] = Solubility in methyl ethyl ketone (MEK) at 25° C.; type: physicochemical; conditions: solvent MEK
[2] = Solubility in toluene at 25° C.; type: physicochemical; conditions: solvent toluene

Row | Compound | solubility in methyl ethyl ketone (MEK) at 25° C. [1] | solubility in toluene at 25° C. [2]
1 | OCCOc1ccc2cc(-c3ccccc3)ccc2c1-c1c(OCCO)ccc2cc(-c3ccccc3)ccc12 [DP, 2,2′-bis(2-hydroxyethoxy)-6,6′-diphenyl-1,1′-binaphthalene] | 0.3 g/(10 mL) | 0.3 g/(10 mL)
2 | OCCOc1ccc2ccccc2c1-c1c(OCCO)ccc2ccccc12 [BNE, 2,2′-bis(2-hydroxyethoxy)-1,1′-binaphthalene] | 0.75 g/(10 mL) | 0.1 g/(10 mL)
3 | OCCOc1ccc(C2(c3ccc(OCCO)c(-c4ccccc4)c3)c3ccccc3-c3ccccc32)cc1-c1ccccc1 [BPPEF, 9,9-bis[4-(2-hydroxyethoxy)-3-phenylphenyl]fluorene] | 4.5 g/(10 mL) | 0.05 g/(10 mL)

— US20240376286A1, “DIHYDROXY COMPOUND MANUFACTURING METHOD AND RECYCLED RESIN MANUFACTURING METHOD” (MITSUBISHI GAS CHEMICAL COMPANY, INC., priority 2021, published 2024)
